Measured values: patent US7705016B2, “Regulation of food intake by modulation of long-chain fatty acyl-CoA levels in the hypothalamus” (Albert Einstein College of Medicine of Yeshiva University, priority 2003, dated 2010)

Key:
[1] = tested on: CPT1L mRNA; experiment: CPT1L mRNA in hypothalamic nuclei micro punches by real-time PCR after ICV injection; format: in vivo, rat; details: 3 days after ICV injection; adjusted for β-actin
Description: Surgical implantation of ICV cannulae was performed on day 1 (˜3 weeks prior to the in vivo study). Full recovery of body weight and food intake was achieved by day 7. Rats randomized for ribozyme treatment received an ICV injection of CPT1L-Ribo, CPT inhibitors or controls on day 17. The experimental group treated with TDGA received ICV injection of the inhibitor on day 21, 6 hr prior to the harvesting of brains. Panels B. and C. show quantitation of CPT1L (B) and CPT1M (C) mRNA by real-time PCR. RNA was purified from individual hypothalamic nuclei (PVN, LHA, and arcuate), which were obtained by micro punch technique 3 days after ICV injection of pTarget control (▪; N=4) or CPT1LRibo (□; N=5). […] CPT1 activity was measured in the particulate fraction of protein extracts from animals treated with ICV control injections (▪; N=6, receiving aCSF+2% DMSO or Control Ribo), TDGA ( ?; N=6), or CPTL-Ribo (□; N=5). […] Levels of stearoyl-CoA (F) and oleyl-CoA (E) respectively were measured by HPLC in arcuate of rats injected ICV with control compound (▪; ST1340) or ST1326 (□).
(§1) ICV catheters were implanted in male Sprague-Dawley rats by stereotaxic surgery (Obici et al., 2002a; Obici et al., 2001; Liu et al., 1998). […] Thus, we next measured CPT1 activity in ARC and in whole hypothalamus. […]
Quantitation of CPT1 and neuropeptides mRNA by Northern and real-time PCR. […]

[2] = target: T1, CPT1 (Rattus norvegicus, UniProt P32198); experiment: CPT1 activity in arcuate nuclei and whole hypothalamus after ICV injection; format: in vivo; details: after ICV administration
T1 construct: CPT1 activity was measured in the particulate fraction of protein extracts from animals treated with ICV control injections; from tissue; host or cells: hypothalamus (arcuate nucleus) of male Sprague-Dawley rats, in vivo or ex vivo
T1 sequence (P32198 2-773): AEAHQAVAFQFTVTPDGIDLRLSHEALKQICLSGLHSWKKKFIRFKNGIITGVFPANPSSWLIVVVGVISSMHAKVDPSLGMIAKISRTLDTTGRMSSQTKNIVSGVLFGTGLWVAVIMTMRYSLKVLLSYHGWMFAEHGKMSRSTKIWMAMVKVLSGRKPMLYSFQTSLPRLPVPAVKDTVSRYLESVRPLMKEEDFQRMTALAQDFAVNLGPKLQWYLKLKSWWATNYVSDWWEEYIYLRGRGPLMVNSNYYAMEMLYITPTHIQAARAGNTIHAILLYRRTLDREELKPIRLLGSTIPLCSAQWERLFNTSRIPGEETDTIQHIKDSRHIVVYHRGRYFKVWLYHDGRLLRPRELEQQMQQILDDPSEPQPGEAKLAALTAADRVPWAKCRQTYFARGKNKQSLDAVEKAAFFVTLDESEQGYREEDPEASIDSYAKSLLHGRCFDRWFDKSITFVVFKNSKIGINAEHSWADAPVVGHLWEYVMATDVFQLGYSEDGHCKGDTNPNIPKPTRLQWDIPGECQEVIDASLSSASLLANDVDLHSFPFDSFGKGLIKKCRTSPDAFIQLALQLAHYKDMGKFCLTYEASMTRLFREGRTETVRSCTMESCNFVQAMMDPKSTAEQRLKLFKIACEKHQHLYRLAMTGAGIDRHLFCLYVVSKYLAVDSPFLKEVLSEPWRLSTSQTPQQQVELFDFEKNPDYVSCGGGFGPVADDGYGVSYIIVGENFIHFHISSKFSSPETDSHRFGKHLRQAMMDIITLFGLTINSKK
Description: Surgical implantation of ICV cannulae was performed on day 1 (˜3 weeks prior to the in vivo study). Full recovery of body weight and food intake was achieved by day 7. Rats randomized for ribozyme treatment received an ICV injection of CPT1L-Ribo, CPT inhibitors or controls on day 17. The experimental group treated with TDGA received ICV injection of the inhibitor on day 21, 6 hr prior to the harvesting of brains. Panels B. and C. show quantitation of CPT1L (B) and CPT1M (C) mRNA by real-time PCR. RNA was purified from individual hypothalamic nuclei (PVN, LHA, and arcuate), which were obtained by micro punch technique 3 days after ICV injection of pTarget control (▪; N=4) or CPT1LRibo (□; N=5). Copy number of CPT1 mRNA is normalized to β-Actin copy number ×10^6. […] CPT1 activity was measured in the particulate fraction of protein extracts from animals treated with ICV control injections (▪; N=6, receiving aCSF+2% DMSO or Control Ribo), TDGA ( ?; N=6), or CPTL-Ribo (□; N=5). […] Levels of stearoyl-CoA (F) and oleyl-CoA (E) respectively were measured by HPLC in arcuate of rats injected ICV with control compound (▪; ST1340) or ST1326 (□).
as §1

For “CPT1L-Ribo: plasmid (pTarget, CMV promoter) expressing a hammerhead ribozyme that specifically cleaves rat CPT1L mRNA, complexed to PEI for ICV injection (DNA CUGUACCAAAGAGCUGUAGAGUCCGUGAGGACGAAACGCCGCUCACAAUG)”, the “CPT1L mRNA in the arcuate nuclei (ARC)” value [1] was “marked decrease” and the “CPT1 activity in ARC” value [2] was “marked decrease”.
